pEC50, pIC50: −log10 of the molar value.
Assays:
[1] = biological target: Human immunodeficiency virus type 1 reverse transcriptase (Human immunodeficiency virus 1, UniProt Q72547); test: Inhibition of HIV1 reverse transcriptase p66/p51 assessed as inhibition of biotin-dUTP incorporation using poly (rA)/oligo(dT)16 as template/primer incubated for 40 mins
[2] = Selectivity index, ratio of CC50 for human MT4 cells to EC50 for HIV1 3B infected in human MT4 cells; type: toxicity, cell-based; conditions: read-out: Ratio CC50/EC50
[3] = Cytotoxicity against human MT4 cells assessed as reduction in cell viability incubated for 4 days by MTT assay; type: cell-based
[4] = system: Human immunodeficiency virus 2; test: Antiviral activity against HIV2 ROD infected in human MT4 cells assessed as reduction in virus-induced cytopathogenicity incubated for 4 days by MTT method; type: functional, organism-based; conditions: Human immunodeficiency virus 2, ROD, MT4, 96 h
[5] = system: Human immunodeficiency virus 1; test: Antiviral activity against HIV1 3B infected in human MT4 cells assessed as reduction in virus-induced cytopathogenicity incubated for 4 days by MTT method; type: functional, organism-based; conditions: Human immunodeficiency virus 1, 3B, MT4, 96 h
[6] = system: Human immunodeficiency virus 1; test: Antiviral activity against HIV1 3B expressing reverse transcriptase K103N + Y181C mutant infected in human MT4 cells assessed as reduction in virus-induced cytopathogenicity incubated for 4 days by MTT method; type: functional, organism-based; conditions: Human immunodeficiency virus 1, 3B, MT4, 96 h
[7] = system: Human immunodeficiency virus 1; test: Antiviral activity against HIV1 expressing reverse transcriptase L100I mutant; type: functional, organism-based
[8] = system: Human immunodeficiency virus 1; test: Antiviral activity against HIV1 expressing reverse transcriptase Y188L mutant; type: functional, organism-based
[9] = system: Human immunodeficiency virus 1; test: Antiviral activity against HIV1 expressing reverse transcriptase E138K mutant; type: functional, organism-based
[10] = system: Human immunodeficiency virus 1; test: Antiviral activity against HIV1 expressing reverse transcriptase F227L + V106A mutant; type: functional, organism-based
[11] = system: Human immunodeficiency virus 1; test: Antiviral activity against HIV1 expressing reverse transcriptase Y181C mutant; type: functional, organism-based
[12] = system: Human immunodeficiency virus 1; test: Antiviral activity against HIV1 expressing reverse transcriptase K103N mutant; type: functional, organism-based

| SMILES | pIC50 [1] | selectivity ratio [2] | CC50 at 96 h [3] | pEC50 [4] | pEC50 [5] | pEC50 [6] | pEC50 [7] | pEC50 [8] | pEC50 [9] | pEC50 [10] | pEC50 [11] | pEC50 [12] |
| --- | --- | --- | --- | --- | --- | --- | --- | --- | --- | --- | --- | --- |
| Cc1ccc(NC(=O)CS(=O)(=O)c2nccc(Oc3c(C)cc(C#N)cc3C)n2)cc1C | 4.56 | 179 | 13900 nM | < 4.86 | 7.11 | < 4.86 |  |  |  |  |  |  |
| COc1ccc(NC(=O)CS(=O)(=O)c2nccc(Oc3c(C)cc(C#N)cc3C)n2)cc1 | 5.33 | 136 | 5100 nM | < 5.29 | 7.42 | < 5.29 |  |  |  |  |  |  |
| Cc1cc(C#N)cc(C)c1Oc1ccnc(S(=O)(=O)CC(=O)Nc2ccc(F)cc2)n1 | 5.74 | 2930 | 26100 nM | < 4.58 | 8.05 | 5.36 | 6.13 | 5.40 | 6.64 | 5.83 | 6.17 | 7.39 |
| Cc1cc(C#N)cc(C)c1Oc1ccnc(S(=O)(=O)CC(=O)Nc2ccc(C#N)cc2F)n1 | 6.53 | > 7810 | > 269000 nM | < 3.57 | 7.46 | < 3.57 |  |  |  |  |  |  |
| Cc1cc(C#N)cc(C)c1Oc1ccnc(S(=O)(=O)CC(=O)Nc2cccc([N+](=O)[O-])c2)n1 | 5.85 | 501 | 23600 nM | < 4.63 | 7.33 | ≤ 5.13 |  |  |  |  |  |  |
| Cc1cc(C#N)cc(C)c1Oc1ccnc(S(=O)(=O)CC(=O)Nc2cccc(F)c2)n1 | 6.66 | 1680 | 25900 nM | < 4.59 | 7.81 | 5.15 |  |  |  |  |  |  |
| Cc1cc(C#N)cc(C)c1Oc1ccnc(S(=O)(=O)CC(=O)Nc2ccc(Cl)cc2)n1 | 6.14 | 4740 | 16600 nM | < 4.78 | 8.46 | 5.98 | 6.72 | 5.85 | 7.38 | 6.17 | 6.89 | 8.00 |
| Cc1cccc(NC(=O)CS(=O)(=O)c2nccc(Oc3c(C)cc(C#N)cc3C)n2)c1 | 3.88 | 75 | 25700 nM | < 4.59 | 6.46 | < 4.59 |  |  |  |  |  |  |
| Cc1cc(C#N)cc(C)c1Oc1ccnc(S(=O)(=O)CC(=O)Nc2cccc(Cl)c2)n1 | 6.01 | 831 | 25400 nM | < 4.59 | 7.51 | 5.14 |  |  |  |  |  |  |
| Cc1cc(C#N)cc(C)c1Oc1nc(Nc2ccc(C#N)cc2)nc(N)c1Br [ETRAVIRINE] |  | > 1120 | > 4600 nM |  |  |  | 7.75 | 7.80 | 7.77 | 7.83 | 7.94 | 8.49 |
| Cc1cc(C#N)cc(C)c1Oc1ccnc(S(=O)(=O)CC(=O)Nc2cc(Cl)cc(Cl)c2)n1 | 6.04 | 58.9 | 24000 nM | < 4.62 | 6.39 | < 4.62 |  |  |  |  |  |  |
| Cc1cc(C#N)cc(C)c1Oc1ccnc(S(=O)(=O)CC(=O)Nc2ccccc2F)n1 | 4.61 | 176 | 28400 nM | < 4.55 | 6.79 | < 4.55 |  |  |  |  |  |  |
| O=C1Nc2ccc(Cl)cc2[C@@](C#CC2CC2)(C(F)(F)F)O1 [EFAVIRENZ] |  |  | > 6340 nM |  | 8.20 |  | 7.02 | 6.46 | 8.27 | 6.64 | 8.09 |  |
| Cc1cc(C#N)cc(C)c1Oc1ccnc(S(=O)(=O)CC(=O)Nc2ccccc2Cl)n1 | 3.84 | 8.7 | 12500 nM | < 4.90 | 5.84 | < 4.90 |  |  |  |  |  |  |
| Cc1cc(C#N)cc(C)c1Oc1ccnc(S(=O)(=O)CC(=O)Nc2ccc(Br)cc2)n1 | 6.14 | 5980 | 15600 nM | < 4.81 | 8.59 | 6.02 | 6.74 | 6.02 | 7.40 | 6.32 | 6.94 | 8.00 |
| Cc1ccc(NC(=O)CS(=O)(=O)c2nccc(Oc3c(C)cc(C#N)cc3C)n2)cc1 | 6.12 | 1060 | 7490 nM | < 5.13 | 8.15 | ≤ 5.02 |  |  |  |  |  |  |
| Cc1cc(C#N)cc(C)c1Oc1ccnc(SCC(=O)Nc2ccc(C#N)cc2)n1 |  | > 71 | > 301000 nM | < 3.52 |  | < 3.52 |  |  |  |  |  |  |
| Cc1cc(C#N)cc(C)c1Oc1ccnc(S(=O)(=O)CC(=O)Nc2ccc(Cl)c(Cl)c2)n1 | 6.75 | 666 | 11700 nM | < 4.93 | 7.76 | 5.93 | 6.33 | 5.83 | 6.61 | 5.50 | 6.49 | 7.35 |
| Cc1cc(C#N)cc(C)c1Oc1ccnc(S(=O)(=O)CC(=O)Nc2ccc([N+](=O)[O-])cc2)n1 | 7.28 | 45800 | 59600 nM | < 4.22 | 8.89 | 6.41 | 6.95 | 6.56 | 7.59 | 6.85 | 7.39 | 8.14 |
| Cc1ccnc2c1NC(=O)c1cccnc1N2C1CC1 [NEVIRAPINE] |  |  | > 15000 nM |  |  | ≤ 5.12 | 5.46 | < 4.82 | 6.54 | < 4.82 | ≤ 4.91 | 5.03 |
| Cc1cc(C#N)cc(C)c1Oc1ccnc(S(=O)(=O)CC(=O)Nc2ccc(C#N)cc2)n1 | 7.19 | ≥ 3540 | ≥ 6010 nM | ≤ 4.49 | 8.77 | 6.37 | 7.17 | 6.50 | 7.78 | 6.90 | 7.50 | 8.47 |
| Cc1cc(C#N)cc(C)c1Oc1ccnc(S(=O)(=O)CC(=O)Nc2ccc(Cl)cc2Cl)n1 | 4.82 | 36.5 | 10400 nM | < 4.98 | 6.55 | < 4.98 |  |  |  |  |  |  |
| Cc1cc(C#N)cc(C)c1Oc1ccnc(S(=O)(=O)CC(=O)Nc2ccccc2)n1 | 4.80 | 1120 | 29300 nM | < 4.53 | 7.59 | < 4.53 |  |  |  |  |  |  |

From ChEMBL document CHEMBL3621191, “Pyrimidine sulfonylacetanilides with improved potency against key mutant viruses of HIV-1 by specific targeting of a highly conserved residue” (Eur J Med Chem, 2015)
